According to patent publication US20190046552A1, “COMPOSITIONS AND METHODS FOR THE TREATMENT OF HCV INFECTION” (priority 2015, published 2019):
Like-named read-outs stand apart in the source and are kept apart here.

System: HCV from sera of patients infected with resistant strains
Test: Capture fusion assay: THP-1 cells infected with patient serum, fused with Huh7.5, HCV RNA by PCR
Type: cell-based
Conditions: for IC50: Hepatitis C virus
Description: Serum samples were taken from 30 patients who had either responded to or previously failed treatment with combination peg-interferon/ribavirin and a direct acting antiviral (DAA), e.g., sofosbuvir and ledipasvir, or DAA treatment alone (FIG. 16). The anti-HCV activity of Formula (IIa) was assessed using the capture fusion assay. Briefly, pre-stimulated THP-1 cells were infected with serum from donors chronically infected with the common HCV genotypes G1 or G3, or from patients infected with the less prevalent G2, G4 or G6 HCV. The hybrid cells were treated once with a range of concentrations of Formula (IIa). For comparison, fused cells infected with G1 and G3 sera were treated with telaprevir or alisporivir. The cells were cultured for 5 days, before quantification of HCV RNA by PCR. Dose-response curves were used to calculate IC50 values for each experiment. The detailed assay protocol is outlined below.
Huh7.5 and Huh7 cells were maintained in Dulbecco's modified Eagle medium with glutamine supplemented with 10% fetal calf serum and 1% penicillin/streptomycin (DMEM/10% FCS/PS). THP-1 cells were maintained in RPMI with glutamine supplemented with 10% fetal calf serum and 1% penicillin/streptomycin (RPMI/10% FCS/PS). Peripheral blood mononuclear cells (PBMC) and sera were obtained from patients with chronic HCV infection, with informed consent. Cytokines used were phorbol 12-myristate 13-acetate (PMA, Sigma-Aldrich, Dorset, UK), IFNγ (Invitrogen, Paisley, UK) and osteopontin (R&D Systems, Abingdon, UK). Primary antibodies used were anti-albumin (Dako, Glostrup, Denmark), anti-CD81 (BD Biosciences, Oxford, UK), anti-SR-B1 (Novus Biologicals, Cambridge, UK), anti-CD32 and anti-CD64 (Abcam, Cambridge, UK). Mouse IgG1 isotype control was purchased from Biolegend UK (London, UK). Fluorescent secondary antibodies AlexaFluor488 and 594 anti-sheep, anti-mouse and anti-rabbit IgG were purchased from Invitrogen.
PBMCs were separated from whole blood by centrifugation on Ficoll-Paque. The PBMC layer was washed twice before positive selection of CD14+ cells by magnetic separation. Huh7.5 cells were trypsinized and combined with CD14+ cells at a 1:1 ratio. After removal of all supernatant, the cell pellet was slowly resuspended in prewarmed polyethylene glycol 1500 (Roche Diagnostics, Burgess Hill, UK). After incubation at 37° C. for 2 minutes, prewarmed medium (DMEM/10% FCS/PS) was added dropwise and the cells washed by centrifugation. The fused cells were seeded into 6 well plates at a density of 5×10^5 cells/mL and maintained at 37° C. until RNA extraction.
THP-1 cells were seeded into 6 well plates at a density of 10^6 cells/mL and maintained in RPMI supplemented with 10% fetal calf serum and 1% penicillin/streptomycin (RPMI/10% FCS/1% PS) for 18 hours, with or without the addition of cytokines. The cells were washed three times and the medium replaced with RPMI/2% FCS and patient serum at a ratio of 1 HCV copy per cell. For antibody blocking experiments, cells were incubated with blocking antibody at 37° C. for one hour before addition of patient serum. After incubation at 37° C. for 18-24 hours, the supernatant was removed and cells were washed three times. Adherent cells were removed using a cell scraper and Huh7.5 cells added at a 1:1 ratio. Cell fusion was performed as described above. The fused cells were seeded into 6 well plates at a density of 10^5 cells/mL and maintained at 37° C. in the presence or absence of antiviral drugs for up to 7 days. In selected experiments, supernatants were pooled from non-drug treated wells and concentrated on a sucrose gradient. In brief, the pooled supernatants were filtered through a 0.45 μm filter then 10 mL of each was layered on 4 mL 20% sucrose. The supernatants were centrifuged at 24,000×g for 2 hours and the resulting pellet resuspended in 1 mL RPMI. […]

## CO[C@H]1C(OP(=O)(OC[C@H]2O[C@@H](n3cnc4c(N)ncnc43)CC2O)SCOC(=O)OC(C)C)[C@@H](CO)O[C@H]1n1ccc(=O)[nH]c1=O (stereo partly shown) [Formula (IIa)]
Five selected patient samples with NS5A mutations (Example 4, FIGS. 18A-18E), read-out: IC50 range
  IC50: ≥ 1 nM
Genotype 3, genotype 3, treatment experienced group, mean±sem
  IC50: 22 nM
Genotype 3, genotype 3, treatment naive group, mean±sem, read-out: IC50
  IC50: 26 ± 7 nM
Patient sample post-peg/RBV treatment, read-out: IC50
  IC50: 455 nM
Patient sample pre-peg/RBV treatment, read-out: IC50
  IC50: 450 nM
Sample from patient 7 prior to administration of telaprevir, FIG. 14A, read-out: IC50
  IC50: 450 nM
Sample from patient 22, repeated relapse after combination interferon and ribavirin therapy (IFN resistant), FIG. 12A, read-out: IC50
  IC50: 24 nM
Sample from patient 23, relapse of HCV infection (IFN resistant), FIG. 12B, read-out: IC50
  IC50: 5.46 nM
Sample from patient 25 after treatment with telaprevir, FIG. 14B, read-out: IC50
  IC50: 6.4 nM
Serum sample from patient 30, sofosbuvir resistant strain, FIG. 13C, read-out: IC50
  IC50: 4 nM
Serum samples from 30 patients (Example 3), read-out: IC50 range for all patient samples
  IC50: 1 to 455 nM
Patient sera of HCV genotypes G1, G3, G2, G4 or G6
  genotype coverage of anti-HCV activity: pan-genotypic activity
post-treatment sample of patient who relapsed after sofosbuvir-containing therapy, FIG. 24C
  sensitivity of sample to treatment: sensitive
